Laboratory results as given in ChEMBL document CHEMBL5107941, “Design and optimisation of a small-molecule TLR2/4 antagonist for anti-tumour therapy” (RSC Med Chem, 2021).

Tests used:
Toll-like receptor 2 = Toll-like receptor 2 (Homo sapiens, UniProt O60603); test: Antagonist activity at human TLR2 in HEK-Blue hTLR2 cells assessed as inhibition of Pam3CSK4-induced receptor activation preincubated with Pam3CSK4 followed by compound addition and measured 24 hrs by Quanti-Blue based SEAP reporter gene assay; type: cell-based
Toll-like receptor 4 = Toll-like receptor 4 (Homo sapiens, UniProt O00206); test: Antagonist activity at human TLR4 in HEK-Blue hTLR4 cells assessed as inhibition of LPS-induced receptor activation preincubated with LPS followed by compound addition and measured 24 hrs by Quanti-Blue based SEAP reporter gene assay; type: cell-based
[1] = Cytotoxicity against HEK-Blue hTLR2 cells assessed as lethal dose measured after 24 hrs by CCK-8 assay; type: toxicity, cell-based; settings: human, read-out: LD50
[2] = Cytotoxicity against HEK-Blue hTLR4 cells assessed as lethal dose measured after 24 hrs by CCK-8 assay; type: toxicity, cell-based; settings: human, read-out: LD50
[3] = Cytotoxicity against mouse RAW264.7 cells assessed as lethal dose measured after 24 hrs by CCK-8 assay; type: toxicity, cell-based; settings: read-out: LD50

Chain of Toll-like receptor 4 (O00206 whole entry): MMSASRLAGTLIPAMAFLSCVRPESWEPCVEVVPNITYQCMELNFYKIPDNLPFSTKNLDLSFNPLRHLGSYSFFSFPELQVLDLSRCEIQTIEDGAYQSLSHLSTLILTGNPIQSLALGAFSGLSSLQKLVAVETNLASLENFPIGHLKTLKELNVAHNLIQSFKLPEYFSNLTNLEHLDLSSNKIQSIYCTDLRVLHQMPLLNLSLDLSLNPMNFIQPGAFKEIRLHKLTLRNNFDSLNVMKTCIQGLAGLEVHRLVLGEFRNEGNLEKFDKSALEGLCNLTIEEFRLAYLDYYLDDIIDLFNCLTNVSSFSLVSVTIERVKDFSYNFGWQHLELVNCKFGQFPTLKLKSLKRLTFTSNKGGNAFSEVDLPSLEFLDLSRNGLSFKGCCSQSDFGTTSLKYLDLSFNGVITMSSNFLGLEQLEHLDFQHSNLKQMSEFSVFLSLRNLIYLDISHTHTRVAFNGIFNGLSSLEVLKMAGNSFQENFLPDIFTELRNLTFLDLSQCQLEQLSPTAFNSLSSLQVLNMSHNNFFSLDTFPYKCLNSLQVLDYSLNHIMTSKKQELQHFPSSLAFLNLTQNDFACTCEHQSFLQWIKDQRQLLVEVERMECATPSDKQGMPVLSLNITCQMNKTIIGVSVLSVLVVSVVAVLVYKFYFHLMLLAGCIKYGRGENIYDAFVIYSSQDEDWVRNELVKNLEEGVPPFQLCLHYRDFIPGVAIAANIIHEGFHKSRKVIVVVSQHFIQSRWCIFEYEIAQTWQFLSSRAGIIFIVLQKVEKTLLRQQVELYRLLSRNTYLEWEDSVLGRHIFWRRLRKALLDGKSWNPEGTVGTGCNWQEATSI
Chain of Toll-like receptor 2 (O60603 whole entry): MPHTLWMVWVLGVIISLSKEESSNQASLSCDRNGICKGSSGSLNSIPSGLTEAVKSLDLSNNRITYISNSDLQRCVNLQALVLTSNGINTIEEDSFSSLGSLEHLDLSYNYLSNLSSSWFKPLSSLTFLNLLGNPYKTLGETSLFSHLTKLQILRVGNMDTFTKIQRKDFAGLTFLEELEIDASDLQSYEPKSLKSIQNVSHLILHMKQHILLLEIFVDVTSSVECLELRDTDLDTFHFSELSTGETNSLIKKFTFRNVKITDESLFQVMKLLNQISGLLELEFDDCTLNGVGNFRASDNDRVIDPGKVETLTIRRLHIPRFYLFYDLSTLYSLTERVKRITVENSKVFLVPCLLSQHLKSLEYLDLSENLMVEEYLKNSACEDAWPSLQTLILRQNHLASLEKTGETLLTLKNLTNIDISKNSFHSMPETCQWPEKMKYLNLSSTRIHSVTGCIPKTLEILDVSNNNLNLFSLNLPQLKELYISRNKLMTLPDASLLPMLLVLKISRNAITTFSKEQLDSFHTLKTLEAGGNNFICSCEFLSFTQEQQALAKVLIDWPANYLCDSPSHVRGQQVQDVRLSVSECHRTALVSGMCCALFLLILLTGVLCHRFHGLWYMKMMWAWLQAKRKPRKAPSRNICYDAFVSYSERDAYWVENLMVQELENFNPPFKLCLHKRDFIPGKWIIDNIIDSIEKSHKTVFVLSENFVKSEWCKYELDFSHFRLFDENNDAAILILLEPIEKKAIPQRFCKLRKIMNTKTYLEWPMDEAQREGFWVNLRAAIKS

Structure (SMILES) | IC50 (Toll-like receptor 2) [µM] | IC50 (Toll-like receptor 4) [µM] | further results
O=[N+]([O-])/C=C/c1cccc(OCc2ccc(Cl)cc2)c1 | 4.3 | 4.8 | –
O=[N+]([O-])/C=C/c1cccc(OCc2ccc(F)cc2)c1 | 5.5 | 4.2 | –
O=[N+]([O-])/C=C/c1cccc(OCc2ccccc2)c1 | 3.3 | 3.5 | –
CCOC(=O)c1ccc(COc2cccc(/C=C/[N+](=O)[O-])c2)nc1 | 12.3 | 9.2 | –
O=[N+]([O-])/C=C/c1ccc(Oc2ccccc2)cc1 | – | 6.5 | –
O=[N+]([O-])/C=C/c1ccccc1Oc1ccccc1 | 4.4 | – | –
O=C(Nc1ccccn1)c1cccc(/C=C/[N+](=O)[O-])c1 | – | 3.6 | –
O=[N+]([O-])/C=C/c1cccc(Nc2ncccn2)c1 | 2.6 | 2.8 | –
O=[N+]([O-])/C=C/c1cccc(Oc2ccccn2)c1 | 1.2 | 1 | –
O=[N+]([O-])/C=C/c1cccc(Oc2ncccn2)c1 | – | 6.2 | –
CN(C)c1ccc(/C=C/[N+](=O)[O-])cc1Nc1ccccn1 | – | 3.7 | –
O=[N+]([O-])/C=C/c1cccc(-c2ccccn2)c1 | – | 0.28 | –
O=[N+]([O-])/C=C/c1cccc(OCC2CCCCC2)c1 | – | 5.9 | –
O=[N+]([O-])/C=C/c1cccc(OCc2ccccn2)c1 | 1.1 | 1.4 | –
CCCOC(=O)c1ccc(COc2cccc(/C=C/[N+](=O)[O-])c2)nc1 | – | 5.9 | –
O=[N+]([O-])/C=C/c1cccc(Oc2nccs2)c1 | – | 2.4 | –
CCCCOc1cccc(/C=C/[N+](=O)[O-])c1 | 3.9 | 5.8 | –
O=[N+]([O-])/C=C/c1cccc(OCC2CC2)c1 | 2.4 | 2.5 | –
COc1ccc(COc2cccc(/C=C/[N+](=O)[O-])c2)cc1 | 4.4 | 5.6 | –
CCCCOC(=O)c1ccc(COc2cccc(/C=C/[N+](=O)[O-])c2)nc1 | 3.1 | 3.7 | –
O=[N+]([O-])/C=C/c1cccc(Nc2ccccn2)c1 | – | 0.46 | CC50 at 24 h [1]: 28 µM; CC50 at 24 h [2]: 28 µM; CC50 at 24 h [3]: 28 µM
O=[N+]([O-])/C=C/c1cccc(Nc2cccnc2)c1 | – | 3.1 | –
O=[N+]([O-])/C=C/c1cccc(OCc2ccncc2)c1 | 3.2 | 3.9 | –
C/C(=C\[N+](=O)[O-])c1cccc(Oc2ccccc2)c1 | – | 6.3 | –
O=[N+]([O-])/C=C/c1cccc(Oc2ccccc2)c1 | 3.4 | 4.3 | –
O=[N+]([O-])/C=C/c1cccc(OCc2ccc3ccccc3c2)c1 | 5 | 4.4 | –
